Measured values: patent US11981731B2, “Targeting cytotoxic cells with chimeric receptors for adoptive immunotherapy” (Novartis AG, priority 2014, dated 2024)
Entries after “also recorded” stand apart in the source; their conditions may differ. Read-outs that look alike come from different tables or passages of the source.

Columns and labels:
[1] = system: NALM6-luc tumors; experiment: NALM6-luc tumor growth under daily oral RAD001; format: in vivo, NSG mice; conditions: daily oral dosing of RAD001 alone
Experimental: NALM6-luc cells were grown and expanded in vitro in RPMI supplemented with 10% heat inactivated fetal bovine serum. The cells were then transferred to a 15 ml conical tube and washed twice with cold sterile PBS. NALM6-luc cells were then counted and resuspended at a concentration of 10×10^6 cells per milliliter of PBS. The cells were placed on ice and immediately (within one hour) implanted in the mice. NALM6-luc cells were injected intravenously via the tail vein in a 100 μl volume, for a total of 1×10^6 cells per mouse.
(§1) A concentrated micro-emulsion of 50 mg equal to 1 mg RAD001 was formulated and then resuspended in D5W (dextrose 5% in water) at the time of dosing. Mice were orally dosed daily (via oral gavage) with 200 μl of the desired doses of RAD001.

[2] = system: huCAR19 CAR T cells; experiment: CAR T cell expansion in vivo with RAD001 (FACS); set-up: species or system NSG mice; conditions: lowest doses of RAD001, daily oral
Experimental: Mice were administered 5×10^6 CAR T cells 7 days after tumor implantation. Cells were partially thawed in a 37 degree Celsius water bath and then completely thawed by the addition of 1 ml of cold sterile PBS to the tube containing the cells. The thawed cells were transferred to a 15 ml falcon tube and adjusted to a final volume of 10 mls with PBS. The cells were washed twice at 1000 rpm for 10 minutes each time and then counted on a hemocytometer. T cells were then resuspended at a concentration of 50×10^6 CAR T cells per ml of cold PBS and kept on ice until the mice were dosed. The mice were injected intravenously via the tail vein with 100 μl of the CAR T cells for a dose of 5×10^6 CAR T cells per mouse. Eight mice per group were treated either with 100 μl of PBS alone (PBS), or humanized CD19 CAR T cells.
as §1
Based on these doses, huCAR19 CAR T cells were dosed with and without RAD001 to determine the proliferative ability of these cells. The highest dose used was 3 mg/kg based on the levels of RAD001 in the blood 24 hours after dosing. […] Mice were monitored via FACS for T cell expansion.

[3] = system: huCART19 cells; experiment: CART proliferation in 4 day co-culture with Nalm-6 in presence of RAD001; format: cell-based, human
Experimental: To evaluate the functionality of CARTs, the T cells are thawed and counted, and viability is assessed by Cellometer. The number of CAR-positive cells in each culture is normalized using non-transduced T cells (UTD). The impact of RAD001 on CARTs was tested in titrations with RAD001, starting at 50 nM. The target cell line used in all co-culture experiments is Nalm-6, a human pre-B cell acute lymphoblastic leukemia (ALL) cell line expressing CD19 and transduced to express luciferase.
For measuring the proliferation of CARTs, T cells are cultured with target cells at a ratio of 1:1. The assay is run for 4 days, when cells are stained for CD3, CD4, CD8 and CAR expression. The number of T cells is assessed by flow cytometry using counting beads as reference.

[4] = RAD001 PK analysis in NSG mice with NALM6-luc tumors; format: in vivo; conditions: for concentration at 24 h: NSG, mouse
Experimental: as §1
Mice were dosed daily with RAD001 starting 7 days post tumor implantation. Dosing groups were as follows: 0.3 mg/kg, 1 mg/kg, 3 mg/kg, and 10 mg/kg. Mice were bled on days 0 and 14 following the first and last dose of RAD001, at the following time points for PK analysis: 15 minutes, 30 minutes, 1 hour, 2 hours, 4 hours, 8 hours, 12 hours, and 24 hours.

[5] = system: CAR-positive CD3-positive T cells co-cultured with Nalm-6 cells; experiment: CART proliferation in co-culture with Nalm-6 cells with RAD001; format: cell-based; conditions: low doses of RAD001, 4 days of co-culture with Nalm-6
Experimental: CARTs were co-cultured with Nalm-6 cells in the presence of different concentrations of RAD001. The number of CAR-positive CD3-positive T cells (black) and total T cells (gray) was assessed after 4 days of co-culture.

[6] = system: CD4+ and CD8+ CAR T cells; experiment: In vivo proliferation of humanized CD19 CART cells with and without RAD001; conditions: 0.003 mg/kg daily with huCTL019
Experimental: FIG. 49A and FIG. 49B show in vivo proliferation of humanized CD19 CART cells with and without RAD001 dosing. […] Circles denote PBS; squares denote huCTL019; triangles denote huCTL019 with 3 mg/kg RAD001; inverted triangles denote huCTL019 with 0.3 mg/kg RAD001; diamonds denote huCTL019 with 0.03 mg/kg RAD001; and circles denote huCTL019 with 0.003 mg/kg RAD001.

CO[C@H]1C[C@@H]2CC[C@@H](C)[C@@](O)(O2)C(=O)C(=O)N2CCCC[C@H]2C(=O)O[C@H]([C@H](C)C[C@@H]2CC[C@@H](OCCO)[C@H](OC)C2)CC(=O)[C@H](C)/C=C(\C)[C@@H](O)[C@@H](OC)C(=O)[C@H](C)C[C@H](C)/C=C/C=C/C=C/1C [RAD001, everolimus]
impact on the growth of NALM6-luc tumors [1]: did not have an impact
proliferation of the CAR T cells in vivo [2]: enhanced proliferation; also recorded: more evident and prolonged with the CD4^+ CAR T cells
proliferation of huCART19 cells ([3]; 0.0032 and 0.016 nM RAD001): higher than observed without the addition of RAD001
expansion of huCART19 cells ([3]; less than 0.016 nM of RAD001): expanded
concentration at 24 h ([4]; blood, oral, 0.3 mg/kg, 24 hours after the final dose, read-out: concentration of RAD001): > 10 nM
concentration at 24 h ([4]; whole blood, 24 hours after dosing, 0.3 mg/kg oral, day 0 and day 14, read-out: RAD001 concentrations in the blood): > 10 nM
stability in the blood of tumor bearing mice ([4]; daily oral dosing): fairly stable
proliferation of CAR-expressing, transduced T cells [5]: enhanced
in vivo CAR T cell proliferation [6]: enhancement in CAR T cell proliferation
